Laboratory results taken from patent publication US20020137929A1, “1 - (3-heterocyclylphenyl) isothiourea, -isourea, -guanidine and -amidine herbicidal agents” (Intellectual Property Department, BASF Aktiengesellschaft, priority 1998, published 2002).

How the values were obtained:
[1] = tested on: IPOHE (Morningglory, Ivyleaf); assay: Postemergence herbicidal evaluation; type: in vivo, Ipomoea hederacea; conditions: for IPOHE herbicidal rating: postemergence
Summary of the method: (§1)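 Compound is applied as a foliar spray to seedlings about two weeks old, formulated in equal parts acetone and water with 0.5% TWEEN 20 and delivered at 40 psi to give about 0.0156–0.500 kg per hectare. Injury is rated visually 0–9 after four to five weeks.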

[2] = tested on: ECHORC (Watergrass (Calif.)); assay: Postemergence weed control under flooded paddy conditions; type: in vivo, Echinochloa oryzoides; conditions: postemergence weeds, rated 3 to 4 weeks after treatment
Summary of the method: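 Injury ratings (0–9 scale covering stand, vigor, malformation, size, chlorosis and overall appearance versus control) were made three to four weeks after treatment. Test material, about 0.0313 to 0.500 kg/ha a.i. in 50/50 v/v aqueous/acetone, was added to flood water 1.5 to 3 cm deep over 3 to 5 cm weeds and 1.5 to 2.5 leaf rice.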

[3] = tested on: IPOHE (Morningglory, Ivyleaf); assay: Preemergence herbicidal evaluation; type: in vivo, Ipomoea hederacea; conditions: rated 4-5 weeks after treatment
Summary of the method: (§2)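 Scores use a 0–9 visual scale covering stand, vigor, malformation, size and chlorosis relative to controls, rated four to five weeks after treatment. Before emergence, soil-planted seeds were sprayed with compound in aqueous acetone at roughly 0.0156–0.500 kg/ha and held in the greenhouse.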

ECHCG (Barnyardgrass) [4] = assay: Postemergence herbicidal evaluation; type: in vivo, Echinochloa crus-galli; conditions: for ECHCG herbicidal rating: postemergence
Summary of the method: as §1

[5] = tested on: TRZAWR (Wheat, Winter, cv Riband); assay: Postemergence herbicidal evaluation; type: in vivo, Triticum aestivum; conditions: for TRZAWR herbicidal rating: postemergence
Summary of the method: as §1

[6] = tested on: GLXMAW (Soybean, Williams); assay: Postemergence herbicidal evaluation; type: in vivo, Glycine max, (L.) Merr. cv Williams; conditions: for GLXMAW herbicidal rating: postemergence
Summary of the method: as §1

ZEAMX (Corn, Field) = assay: Preemergence herbicidal evaluation; type: in vivo, Zea mays; conditions: rated 4-5 weeks after treatment
Summary of the method: as §2

ABUTH (Velvetleaf) = assay: Postemergence herbicidal evaluation; type: in vivo, Abutilon theophrasti; conditions: for ABUTH herbicidal rating: postemergence
Summary of the method: as §1

ECHCG (Barnyardgrass) [7] = assay: Preemergence herbicidal evaluation; type: in vivo, Echinochloa crus-galli; conditions: rated 4-5 weeks after treatment
Summary of the method: as §2

CASOB (Sicklepod) = assay: Preemergence herbicidal evaluation; type: in vivo, Cassia obtusifolia; conditions: rated 4-5 weeks after treatment
Summary of the method: as §2

GALAP (Galium) = assay: Preemergence herbicidal evaluation; type: in vivo, Galium aparine; conditions: rated 4-5 weeks after treatment
Summary of the method: as §2

SETVI (Foxtail, Green) = assay: Postemergence herbicidal evaluation; type: in vivo, Setaria viridis; conditions: for SETVI herbicidal rating: postemergence
Summary of the method: as §1

AMBEL (Ragweed, Common) = assay: Postemergence herbicidal evaluation; type: in vivo, Ambrosia artemisifolia; conditions: for AMBEL herbicidal rating: postemergence
Summary of the method: as §1

[8] = tested on: CHEAL (Lambsquarters, Common); assay: Preemergence herbicidal evaluation; type: in vivo, Chenopodium album; conditions: rated 4-5 weeks after treatment
Summary of the method: as §2

C=CCN1C(=O)C(CC(=O)O)SC1=Nc1cc(-n2c(=O)cc(C(F)(F)F)n(C)c2=O)c(F)cc1Cl (stereo not drawn) [Compound 62, 3-Allyl-2-{{2-chloro-5-[3,6-dihydro-3-methyl-2,6-dioxo-4-(trifluoromethyl)-1(2H)-pyrimidinyl]-4-fluorophenyl}imino}-4-oxo-5-thiazolidineacetic acid]
7.0: Preemergence herbicidal rating IPOHE ([3]; rate 0.1250 kg/ha) | Postemergence herbicidal rating ECHCG (ECHCG (Barnyardgrass) [4]; Rate 0.0630 kg/ha) | Postemergence herbicidal rating TRZAWR ([5]; Rate 0.0630 kg/ha) | Preemergence herbicidal rating ZEAMX (ZEAMX (Corn, Field); rate 0.2500 kg/ha) | Preemergence herbicidal rating ECHCG (ECHCG (Barnyardgrass) [7]; rate 0.2500 kg/ha) | Postemergence herbicidal rating AMBEL (AMBEL (Ragweed, Common); Rate 0.0315 kg/ha) | Preemergence herbicidal rating CHEAL ([8]; rate 0.0156 kg/ha)
3.0: Preemergence herbicidal rating IPOHE ([3]; rate 0.0313 kg/ha) | Preemergence herbicidal rating ZEAMX (ZEAMX (Corn, Field); rate 0.1250 kg/ha) | Preemergence herbicidal rating ECHCG (ECHCG (Barnyardgrass) [7]; rate 0.1250 kg/ha)
5.5: Postemergence herbicidal rating TRZAWR ([5]; Rate 0.0315 kg/ha)
8.5: Postemergence herbicidal rating GLXMAW ([6]; Rate 0.0630 kg/ha)
7.5: Postemergence herbicidal rating GLXMAW ([6]; Rate 0.0158 kg/ha) | Postemergence herbicidal rating GLXMAW ([6]; Rate 0.0315 kg/ha)
2.0: Herbicidal rating ECHORC ([2]; Rate 0.1250 kg/ha)
0.0: Herbicidal rating ECHORC ([2]; Rate 0.0313 kg/ha) | Herbicidal rating ECHORC ([2]; Rate 0.0625 kg/ha) | Preemergence herbicidal rating IPOHE ([3]; rate 0.0156 kg/ha) | Preemergence herbicidal rating ZEAMX (ZEAMX (Corn, Field); rate 0.0156 kg/ha) | Preemergence herbicidal rating ECHCG (ECHCG (Barnyardgrass) [7]; rate 0.0156 kg/ha) | Preemergence herbicidal rating ECHCG (ECHCG (Barnyardgrass) [7]; rate 0.0313 kg/ha) | Preemergence herbicidal rating CASOB (CASOB (Sicklepod); rate 0.0156 kg/ha) | Preemergence herbicidal rating CASOB (CASOB (Sicklepod); rate 0.0313 kg/ha) | Preemergence herbicidal rating GALAP (GALAP (Galium); rate 0.0156 kg/ha) | Preemergence herbicidal rating GALAP (GALAP (Galium); rate 0.0313 kg/ha) | Preemergence herbicidal rating GALAP (GALAP (Galium); rate 0.0625 kg/ha)
5.0: Herbicidal rating ECHORC ([2]; Rate 0.2500 kg/ha) | Preemergence herbicidal rating IPOHE ([3]; rate 0.0625 kg/ha) | Postemergence herbicidal rating TRZAWR ([5]; Rate 0.0158 kg/ha)
4.0: Postemergence herbicidal rating ECHCG (ECHCG (Barnyardgrass) [4]; Rate 0.0158 kg/ha)
6.0: Postemergence herbicidal rating ECHCG (ECHCG (Barnyardgrass) [4]; Rate 0.0315 kg/ha) | Preemergence herbicidal rating GALAP (GALAP (Galium); rate 0.1250 kg/ha)
8.0: Postemergence herbicidal rating SETVI (SETVI (Foxtail, Green); Rate 0.0630 kg/ha)
1.0: Preemergence herbicidal rating ZEAMX (ZEAMX (Corn, Field); rate 0.0313 kg/ha) | Preemergence herbicidal rating ZEAMX (ZEAMX (Corn, Field); rate 0.0625 kg/ha) | Preemergence herbicidal rating ECHCG (ECHCG (Barnyardgrass) [7]; rate 0.0625 kg/ha) | Preemergence herbicidal rating CASOB (CASOB (Sicklepod); rate 0.0625 kg/ha) | Preemergence herbicidal rating CASOB (CASOB (Sicklepod); rate 0.1250 kg/ha) | Preemergence herbicidal rating CASOB (CASOB (Sicklepod); rate 0.2500 kg/ha)
9.0: Postemergence herbicidal rating IPOHE ([1]; Rate 0.0158 kg/ha) | Postemergence herbicidal rating IPOHE ([1]; Rate 0.0315 kg/ha) | Postemergence herbicidal rating IPOHE ([1]; Rate 0.0630 kg/ha) | Preemergence herbicidal rating IPOHE ([3]; rate 0.2500 kg/ha) | Postemergence herbicidal rating ABUTH (ABUTH (Velvetleaf); Rate 0.0158 kg/ha) | Postemergence herbicidal rating ABUTH (ABUTH (Velvetleaf); Rate 0.0315 kg/ha) | Postemergence herbicidal rating ABUTH (ABUTH (Velvetleaf); Rate 0.0630 kg/ha) | Preemergence herbicidal rating GALAP (GALAP (Galium); rate 0.2500 kg/ha) | Postemergence herbicidal rating SETVI (SETVI (Foxtail, Green); Rate 0.0158 kg/ha) | Postemergence herbicidal rating SETVI (SETVI (Foxtail, Green); Rate 0.0315 kg/ha) | Postemergence herbicidal rating AMBEL (AMBEL (Ragweed, Common); Rate 0.0158 kg/ha) | Postemergence herbicidal rating AMBEL (AMBEL (Ragweed, Common); Rate 0.0630 kg/ha) | Preemergence herbicidal rating CHEAL ([8]; rate 0.0313 kg/ha) | Preemergence herbicidal rating CHEAL ([8]; rate 0.0625 kg/ha) | Preemergence herbicidal rating CHEAL ([8]; rate 0.1250 kg/ha) | Preemergence herbicidal rating CHEAL ([8]; rate 0.2500 kg/ha)

C=CCN1C(=O)C(CC(=O)OC(C)C)SC1=Nc1cc(-n2c(=O)cc(C(F)(F)F)n(C)c2=O)c(F)cc1Cl (stereo not drawn) [Compound 66, Isopropyl 3-allyl-2-{{2-chloro-5-[3,6-dihydro-3-methyl-2,6-dioxo-4-(trifluoromethyl)-1(2H)-pyrimidinyl]-4-fluorophenyl}imino}-4-oxo-5-thiazolidineacetate]
4.0: Preemergence herbicidal rating CHEAL ([8]; rate 0.0156 kg/ha)
2.5: Preemergence herbicidal rating ZEAMX (ZEAMX (Corn, Field); rate 0.2500 kg/ha)
2.0: ECHCG herbicidal rating (ECHCG (Barnyardgrass) [4]; rate 0.0158 kg/ha) | SETVI herbicidal rating (SETVI (Foxtail, Green); rate 0.0158 kg/ha)
3.5: TRZAWR herbicidal rating ([5]; rate 0.0158 kg/ha) | Preemergence herbicidal rating GALAP (GALAP (Galium); rate 0.1250 kg/ha)
7.5: TRZAWR herbicidal rating ([5]; rate 0.1250 kg/ha)
8.5: GLXMAW herbicidal rating ([6]; rate 0.0313 kg/ha) | GLXMAW herbicidal rating ([6]; rate 0.0625 kg/ha)
8.0: TRZAWR herbicidal rating ([5]; rate 0.0625 kg/ha) | Preemergence herbicidal rating GALAP (GALAP (Galium); rate 0.2500 kg/ha)
0.5: Preemergence herbicidal rating IPOHE ([3]; rate 0.0625 kg/ha) | Preemergence herbicidal rating ZEAMX (ZEAMX (Corn, Field); rate 0.0156 kg/ha) | Preemergence herbicidal rating ZEAMX (ZEAMX (Corn, Field); rate 0.0625 kg/ha) | Preemergence herbicidal rating ECHCG (ECHCG (Barnyardgrass) [7]; rate 0.0625 kg/ha) | Preemergence herbicidal rating ECHCG (ECHCG (Barnyardgrass) [7]; rate 0.1250 kg/ha) | Preemergence herbicidal rating CASOB (CASOB (Sicklepod); rate 0.1250 kg/ha) | Preemergence herbicidal rating CASOB (CASOB (Sicklepod); rate 0.2500 kg/ha)
7.0: Herbicidal rating ECHORC ([2]; Rate 0.0313 kg/ha) | Herbicidal rating ECHORC ([2]; Rate 0.0625 kg/ha) | TRZAWR herbicidal rating ([5]; rate 0.0313 kg/ha) | GLXMAW herbicidal rating ([6]; rate 0.0158 kg/ha) | Preemergence herbicidal rating ZEAMX (ZEAMX (Corn, Field); rate 0.5000 kg/ha)
6.0: Preemergence herbicidal rating IPOHE ([3]; rate 0.2500 kg/ha) | AMBEL herbicidal rating (AMBEL (Ragweed, Common); rate 0.0158 kg/ha)
9.0: IPOHE herbicidal rating ([1]; rate 0.0158 kg/ha) | IPOHE herbicidal rating ([1]; rate 0.0313 kg/ha) | IPOHE herbicidal rating ([1]; rate 0.0625 kg/ha) | IPOHE herbicidal rating ([1]; rate 0.1250 kg/ha) | Herbicidal rating ECHORC ([2]; Rate 0.1250 kg/ha) | Herbicidal rating ECHORC ([2]; Rate 0.2500 kg/ha) | Preemergence herbicidal rating IPOHE ([3]; rate 0.5000 kg/ha) | ECHCG herbicidal rating (ECHCG (Barnyardgrass) [4]; rate 0.0313 kg/ha) | ECHCG herbicidal rating (ECHCG (Barnyardgrass) [4]; rate 0.0625 kg/ha) | ECHCG herbicidal rating (ECHCG (Barnyardgrass) [4]; rate 0.1250 kg/ha) | GLXMAW herbicidal rating ([6]; rate 0.1250 kg/ha) | ABUTH herbicidal rating (ABUTH (Velvetleaf); rate 0.0158 kg/ha) | ABUTH herbicidal rating (ABUTH (Velvetleaf); rate 0.0313 kg/ha) | ABUTH herbicidal rating (ABUTH (Velvetleaf); rate 0.0625 kg/ha) | ABUTH herbicidal rating (ABUTH (Velvetleaf); rate 0.1250 kg/ha) | Preemergence herbicidal rating ECHCG (ECHCG (Barnyardgrass) [7]; rate 0.5000 kg/ha) | Preemergence herbicidal rating GALAP (GALAP (Galium); rate 0.5000 kg/ha) | SETVI herbicidal rating (SETVI (Foxtail, Green); rate 0.0313 kg/ha) | SETVI herbicidal rating (SETVI (Foxtail, Green); rate 0.0625 kg/ha) | SETVI herbicidal rating (SETVI (Foxtail, Green); rate 0.1250 kg/ha) | AMBEL herbicidal rating (AMBEL (Ragweed, Common); rate 0.0313 kg/ha) | AMBEL herbicidal rating (AMBEL (Ragweed, Common); rate 0.0625 kg/ha) | AMBEL herbicidal rating (AMBEL (Ragweed, Common); rate 0.1250 kg/ha) | Preemergence herbicidal rating CHEAL ([8]; rate 0.0313 kg/ha) | Preemergence herbicidal rating CHEAL ([8]; rate 0.0625 kg/ha) | Preemergence herbicidal rating CHEAL ([8]; rate 0.1250 kg/ha) | Preemergence herbicidal rating CHEAL ([8]; rate 0.2500 kg/ha) | Preemergence herbicidal rating CHEAL ([8]; rate 0.5000 kg/ha)
0.0: Preemergence herbicidal rating IPOHE ([3]; rate 0.0156 kg/ha) | Preemergence herbicidal rating IPOHE ([3]; rate 0.0313 kg/ha) | Preemergence herbicidal rating ZEAMX (ZEAMX (Corn, Field); rate 0.0313 kg/ha) | Preemergence herbicidal rating ECHCG (ECHCG (Barnyardgrass) [7]; rate 0.0156 kg/ha) | Preemergence herbicidal rating ECHCG (ECHCG (Barnyardgrass) [7]; rate 0.0313 kg/ha) | Preemergence herbicidal rating CASOB (CASOB (Sicklepod); rate 0.0156 kg/ha) | Preemergence herbicidal rating CASOB (CASOB (Sicklepod); rate 0.0313 kg/ha) | Preemergence herbicidal rating CASOB (CASOB (Sicklepod); rate 0.0625 kg/ha) | Preemergence herbicidal rating GALAP (GALAP (Galium); rate 0.0156 kg/ha) | Preemergence herbicidal rating GALAP (GALAP (Galium); rate 0.0313 kg/ha) | Preemergence herbicidal rating GALAP (GALAP (Galium); rate 0.0625 kg/ha)
3.0: Preemergence herbicidal rating IPOHE ([3]; rate 0.1250 kg/ha) | Preemergence herbicidal rating ECHCG (ECHCG (Barnyardgrass) [7]; rate 0.2500 kg/ha) | Preemergence herbicidal rating CASOB (CASOB (Sicklepod); rate 0.5000 kg/ha)
1.0: Preemergence herbicidal rating ZEAMX (ZEAMX (Corn, Field); rate 0.1250 kg/ha)
